Marks after values point to notes of the source that are not given here.
Experiments:
normotensive rats = assay: Influence on blood pressure in the normotensive rats; format: in vivo, rat; settings: for DBP—diastolic blood pressure / SBP—systolic blood pressure: mean ± SD
Description: The experiment was performed according to the method described earlier. Normotensive Wistar rats were anesthetized with thiopental (75 mg/kg ip). The right carotid artery was cannulated with a polyethylene tube filled with heparin solution, using a Datamax apparatus (Columbus Instruments, Columbus, OH, USA). After 15 min of the stabilization period, the studied compounds were administered iv, and their effect on systolic and diastolic blood pressure was evaluated (Figure 4A).

α1-adrenergic receptors = assay: α1-adrenoceptor radioligand binding assay ([3H]-prazosin, rat cortex); settings: rat cortex tissue, mean ± SEM
Description: The α1- and α2-adrenoceptor radioligand binding assays were performed on the rat cerebral cortex using previously described methods. […] The brains were homogenized using the ULTRA-TURRAX homogenizer in 10 mL of an ice-cold 50 mM Tris-HCl buffer (pH 7.6). The homogenates were centrifuged at 20,000× g for 20 min (0–4 °C). Subsequently, the cell pellet was resuspended in the Tris–HCl buffer and centrifuged again. Radioligand binding assays were carried out in plates (MultiScreen/Millipore). The final incubation mixture, with a volume of 300 μL, consisted of 240 μL of the tissue suspension, 30 μL of the radioligand solution, and 30 μL of the buffer containing 7–8 concentrations of the studied compounds. In order to measure the unspecific binding, 10 μM phentolamine (for [^3H]-prazosin) or 10 μM clonidine (for [^3H]-clonidine) were utilized. The incubation was completed by rapid filtration through Whatman GF/C filters using a vacuum manifold (Millipore). The filters were then washed twice with the assay buffer and placed in scintillation vials with a liquid scintillation cocktail. Radioactivity was measured in a WALLAC 1409 DSA liquid scintillation counter (Perkin Elmer, USA). All the assays were performed in duplicates, and the inhibitory constants (Ki) were calculated.

[1] = 1.0 mg/kg iv, 0 min (before administration)
[2] = 2.5 mg/kg iv, 0 min (before administration)

| Structure (SMILES) | DBP—diastolic blood pressure (normotensive rats; [1]) [mmHg] | SBP—systolic blood pressure (normotensive rats; [1]) [mmHg] | DBP—diastolic blood pressure (normotensive rats; 1.0 mg/kg iv, 5 min) [mmHg] | SBP—systolic blood pressure (normotensive rats; 1.0 mg/kg iv, 5 min) [mmHg] | DBP—diastolic blood pressure (normotensive rats; 1.0 mg/kg iv, 10 min) [mmHg] | SBP—systolic blood pressure (normotensive rats; 1.0 mg/kg iv, 10 min) [mmHg] | DBP—diastolic blood pressure (normotensive rats; 1.0 mg/kg iv, 20 min) [mmHg] | SBP—systolic blood pressure (normotensive rats; 1.0 mg/kg iv, 20 min) [mmHg] | DBP—diastolic blood pressure (normotensive rats; 1.0 mg/kg iv, 30 min) [mmHg] | SBP—systolic blood pressure (normotensive rats; 1.0 mg/kg iv, 30 min) [mmHg] | DBP—diastolic blood pressure (normotensive rats; 1.0 mg/kg iv, 40 min) [mmHg] | SBP—systolic blood pressure (normotensive rats; 1.0 mg/kg iv, 40 min) [mmHg] | DBP—diastolic blood pressure (normotensive rats; 1.0 mg/kg iv, 50 min) [mmHg] | SBP—systolic blood pressure (normotensive rats; 1.0 mg/kg iv, 50 min) [mmHg] | DBP—diastolic blood pressure (normotensive rats; 1.0 mg/kg iv, 60 min) [mmHg] | SBP—systolic blood pressure (normotensive rats; 1.0 mg/kg iv, 60 min) [mmHg] | DBP—diastolic blood pressure (normotensive rats; [2]) [mmHg] | SBP—systolic blood pressure (normotensive rats; [2]) [mmHg] | DBP—diastolic blood pressure (normotensive rats; 2.5 mg/kg iv, 5 min) | SBP—systolic blood pressure (normotensive rats; 2.5 mg/kg iv, 5 min) | also measured |
| --- | --- | --- | --- | --- | --- | --- | --- | --- | --- | --- | --- | --- | --- | --- | --- | --- | --- | --- | --- | --- | --- |
| Cl.NC(=O)c1ccccc1OCCCCCN1CCN(c2cccc(Cl)c2)CC1 [JJGW02, 2-{5-[4-(3-chlorophenyl)piperazin-1-ylo]pentoxy}benzamide hydrochloride] | 87.7 ± 14.9 | 118.0 ± 10.5 | 82.7 ± 16.0 | 113.7 ± 8.7 | 83.3 ± 10.3 | 111.2 ± 6.4 | 80.0 ± 14.1 | 109.7 ± 9.1 | 73.7 ± 10.6 | 105.7 ± 7.5 | 75.0 ± 13.2 | 107.7 ± 11.5 | 73.7 ± 13.9 | 108.7 ± 12.9 | 76.7 ± 19.2 | 111.0 ± 18.0 | 84.8 ± 12.1 | 114.3 ± 15.7 | 72.0 ± 9.4 ^c mmHg | 103.2 ± 13.0 ^c mmHg | DBP—diastolic blood pressure (normotensive rats; 2.5 mg/kg iv, 10 min): 72.8 ± 11.6 ^b mmHg; SBP—systolic blood pressure (normotensive rats; 2.5 mg/kg iv, 10 min): 104.2 ± 13.2 ^b mmHg; DBP—diastolic blood pressure (normotensive rats; 2.5 mg/kg iv, 20 min): 73.0 ± 9.6 ^b mmHg; SBP—systolic blood pressure (normotensive rats; 2.5 mg/kg iv, 20 min): 102.8 ± 13.4 ^b mmHg; DBP—diastolic blood pressure (normotensive rats; 2.5 mg/kg iv, 30 min): 72.3 ± 8.1 ^a mmHg; SBP—systolic blood pressure (normotensive rats; 2.5 mg/kg iv, 30 min): 103.7 ± 10.8 ^a mmHg; DBP—diastolic blood pressure (normotensive rats; 2.5 mg/kg iv, 40 min): 73.8 ± 9.4 ^a mmHg; SBP—systolic blood pressure (normotensive rats; 2.5 mg/kg iv, 40 min): 106.5 ± 10.6 mmHg; DBP—diastolic blood pressure (normotensive rats; 2.5 mg/kg iv, 50 min): 73.7 ± 8.7 mmHg; SBP—systolic blood pressure (normotensive rats; 2.5 mg/kg iv, 50 min): 103.2 ± 9.4 ^b mmHg; DBP—diastolic blood pressure (normotensive rats; 2.5 mg/kg iv, 60 min): 73.7 ± 7.9 ^a mmHg; SBP—systolic blood pressure (normotensive rats; 2.5 mg/kg iv, 60 min): 105.2 ± 9.7 ^a mmHg; decrease of the systolic blood pressure (normotensive rats; 2.5 mg/kg iv, between the 5th and 30th min and between the 50th and 60th min): 8–10%; decrease of the diastolic blood pressure (normotensive rats; 2.5 mg/kg iv, between the 5th to 40th min and in the 60th min): 13–15%; Adrenergic Receptors—pKi α1 (α1-adrenergic receptors): 8.33 ± 0.02 |
| COc1ccccc1N1CCN(Cc2cccc(COc3ccccc3C(N)=O)c2)CC1.Cl [JJGW11, 2-[(3-{[4-(2-metoxyphenyl)piperazin-1-ylo]methyl}phenyl)metoxy}benzamide hydrochloride] | 86.8 ± 7.6 | 118.2 ± 9.7 | 81.3 ± 14.4 | 116.2 ± 8.5 | 82.0 ± 10.2 | 113.8 ± 9.2 | 82.3 ± 8.8 | 111.5 ± 10.4 | 83.0 ± 8.2 | 111.0 ± 10.8 | 82.5 ± 8.4 | 110.0 ± 11.5 | 81.7 ± 8.3 | 110.3 ± 10.7 | 81.5 ± 8.4 | 110.8 ± 10.6 | 88.7 ± 10.4 | 116.7 ± 8.1 | 84.7 ± 10.0 mmHg | 108.5 ± 8.7 ^b mmHg | decrease of the diastolic blood pressure (normotensive rats; 2.5 mg/kg iv, 60th min after administration): 18%; DBP—diastolic blood pressure (normotensive rats; 2.5 mg/kg iv, 10 min): 81.2 ± 8.6 mmHg; SBP—systolic blood pressure (normotensive rats; 2.5 mg/kg iv, 10 min): 103.3 ± 9.5^c mmHg; DBP—diastolic blood pressure (normotensive rats; 2.5 mg/kg iv, 20 min): 78.5 ± 10.1 mmHg; SBP—systolic blood pressure (normotensive rats; 2.5 mg/kg iv, 20 min): 102.3 ± 10.0 ^c mmHg; DBP—diastolic blood pressure (normotensive rats; 2.5 mg/kg iv, 30 min): 77.3 ± 9.9 mmHg; SBP—systolic blood pressure (normotensive rats; 2.5 mg/kg iv, 30 min): 101.3 ± 9.2 ^b mmHg; DBP—diastolic blood pressure (normotensive rats; 2.5 mg/kg iv, 40 min): 79.2 ± 10.5 mmHg; SBP—systolic blood pressure (normotensive rats; 2.5 mg/kg iv, 40 min): 103.0 ± 10.3 ^a mmHg; DBP—diastolic blood pressure (normotensive rats; 2.5 mg/kg iv, 50 min): 77.7 ± 12.9 mmHg; SBP—systolic blood pressure (normotensive rats; 2.5 mg/kg iv, 50 min): 103.5 ± 12.9 ^b mmHg; DBP—diastolic blood pressure (normotensive rats; 2.5 mg/kg iv, 60 min): 73.0 ± 16.2 ^a mmHg; SBP—systolic blood pressure (normotensive rats; 2.5 mg/kg iv, 60 min): 100.2 ± 15.9 ^b mmHg; decrease of the systolic blood pressure (normotensive rats; 2.5 mg/kg iv, between the 5th and 60th min after injection): 7–14%; Adrenergic Receptors—pKi α1 (α1-adrenergic receptors): 8.07 ± 0.04 |
